In patent US7223760B2, “Substituted triazole compounds” (SmithKline Beecham Corporation, priority 1998, dated 2007):

How the values were obtained:
Interleukin-1 (IL-1) = Interleukin-1 (IL-1) production by LPS-stimulated human peripheral blood monocytes; assay type: cell-based; details: Monocyte, lipopolysaccharide 50 ng/ml, 24 h
Description: Human peripheral blood monocytes are isolated and purified from either fresh blood preparations from volunteer donors, or from blood bank buffy coats, according to the procedure of Colotta et al, J Immunol, 132, 936 (1984). These monocytes (1×10^6) are plated in 24-well plates at a concentration of 1–2 million/ml per well. The cells are allowed to adhere for 2 hours, after which time non-adherent cells are removed by gentle washing. Test compounds are then added to the cells for 1 h before the addition of lipopolysaccharide (50 ng/ml), and the cultures are incubated at 37° C. for an additional 24 h. At the end of this period, culture supernatants are removed and clarified of cells and all debris. Culture supernatants are then immediately assayed for IL-1 biological activity, either by the method of Simon et al., J. Immunol. Methods, 84, 85, (1985) (based on ability of IL-1 to stimulate a Interleukin 2 producing cell line (EL-4) to secrete IL-2, in concert with A23187 ionophore) or the method of Lee et al., J. ImmunoTherapy, 6 (1), 1–12 (1990) (ELISA assay).

CSBP/p38 = target: T1, CSBP/p38 (Homo sapiens, UniProt Q16539); assay: CSBP/p38 Kinase Assay (32P transfer to T669 peptide); assay type: biochemical; details: "in this binding assay or a similar assay"; read-out: positive inhibitory activity, IC50
T1 construct: made in house; host or cells: yeast
T1 sequence (Q16539 whole entry): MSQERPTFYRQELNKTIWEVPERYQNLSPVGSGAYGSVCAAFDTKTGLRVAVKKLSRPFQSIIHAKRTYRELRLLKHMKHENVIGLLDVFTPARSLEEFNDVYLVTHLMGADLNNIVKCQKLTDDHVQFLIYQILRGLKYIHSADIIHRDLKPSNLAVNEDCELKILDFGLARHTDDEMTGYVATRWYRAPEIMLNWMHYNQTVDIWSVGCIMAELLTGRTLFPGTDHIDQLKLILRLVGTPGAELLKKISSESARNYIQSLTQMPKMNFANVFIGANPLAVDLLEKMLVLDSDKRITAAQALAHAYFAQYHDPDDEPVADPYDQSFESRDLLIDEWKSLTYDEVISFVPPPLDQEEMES
Description: This assay measures the CSBP/p38-catalyzed transfer of ^32p from [a-^32P]ATP to threonine residue in an epidermal growth factor receptor (EGFR)-derived peptide (T669) with the following sequence: […] (residues 661–681). (See Gallagher et al., “Regulation of Stress Induced Cytokine Production by Pyridinyl Imidazoles: Inhibition of CSBP Kinase”, BioOrganic & Medicinal Chemistry, 1997, 5, 49–64).
Reactions were carried in round bottom 96 well plate (from Corning) in a […]. Reactions contained (in final concentration): 25 mM Hepes, pH 7.5; 8 mM MgCl2; 0.17 mM ATP (the Km[ATP] of p38 (see Lee et al., Nature 300, n72 pg. 639–746 (December 1994)); 2.5 uCi of [g-32P]ATP; 0.2 mM sodium orthovanadate; 1 mM DTT; 0.1% BSA; 10% glycerol; 0.67 mM T669 peptide; and 2–4 nM of yeast-expressed, activated and purified p38. Reactions were initiated by the addition of [gamma-32P]Mg/ATP, and incubated for 25 min. at 37° C. Inhibitors (dissolved in DMSO) were incubated with the reaction mixture on ice for 30 minutes prior to adding the 32P-ATP. Final DMSO concentration was 0.16%. Reactions were terminated by adding 10 ul of 0.3 M phosphoric acid, and phosphorylated peptide was isolated from the reactions by capturing it on p81 phosphocellulose filters. Filters were washed with 75 mM phosphoric acids, and incorporated 32P was quantified using beta scintillation counter. […]

IC50 (Interleukin-1 (IL-1))	IC50 (CSBP/p38)	Structure (SMILES)
< 7 µM		Fc1ccc(-c2nc(-c3ccccc3)nn2-c2ccncc2)cc1 [Example 1, 1-(Pyrid-4-yl)-3-phenyl-5-(4-fluorophenyl)-1,2,4-triazole]
	< 50 µM	Nc1cc(-n2nc(-c3ccccc3)nc2-c2ccc(F)cc2)ncn1 [Example 2, 1-(6-Aminopyrimidin-4-yl)-3-phenyl-5-(4-fluorophenyl)-1,2,4-triazole]
